Values joined by “and” are separate entries in the source; they are usually repeats but may differ in a detail not shown here. Identical values can stand only once.
Columns and labels:
[1] = molar heat capacity at constant pressure; conditions: 101.33 kPa, Crystal, Flow calorimetry
[2] = Crystal, Torsion effusion method

O=C(O)c1cc(Br)cc(Br)c1 [3,5-dibromobenzoic acid]
Conditions | molar heat capacity at constant pressure | vapor or sublimation pressure [kPa]
[1], 288.2 K | 215.7 J/K/mol and 215.8 J/K/mol | –
[1], 290.2 K | 217.3 J/K/mol and 217.5 J/K/mol and 217.4 J/K/mol | –
[1], 292.2 K | 219.2 J/K/mol and 219.3 J/K/mol and 219.4 J/K/mol | –
[1], 294.2 K | 220.3 J/K/mol and 220.4 J/K/mol | –
[1], 296.2 K | 221.6 J/K/mol and 221.5 J/K/mol | –
[1], 298.2 K | 223.2 J/K/mol and 223.1 J/K/mol and 223 J/K/mol | –
[1], 300.2 K | 224.5 J/K/mol and 224.9 J/K/mol and 224.7 J/K/mol | –
[1], 302.2 K | 225.8 J/K/mol and 225.7 J/K/mol | –
[1], 304.2 K | 227.2 J/K/mol and 227.1 J/K/mol and 227 J/K/mol | –
[1], 306.2 K | 228.4 J/K/mol and 228.3 J/K/mol | –
[1], 308.2 K | 229.6 J/K/mol and 229.8 J/K/mol and 229.9 J/K/mol | –
[1], 310.2 K | 231.5 J/K/mol and 231.6 J/K/mol | –
[1], 312.2 K | 232.5 J/K/mol and 232.3 J/K/mol and 232.4 J/K/mol | –
[1], 314.2 K | 234.1 J/K/mol and 233.9 J/K/mol and 234 J/K/mol | –
[1], 316.2 K | 235.2 J/K/mol and 235.3 J/K/mol | –
[1], 318.2 K | 236.9 J/K/mol and 236.7 J/K/mol and 237 J/K/mol | –
[1], 320.2 K | 238.5 J/K/mol and 238.4 J/K/mol | –
[1], 322.2 K | 239 J/K/mol and 239.2 J/K/mol | –
[1], 324.2 K | 240.7 J/K/mol and 240.6 J/K/mol and 240.5 J/K/mol | –
[1], 326.2 K | 242.5 J/K/mol and 242.4 J/K/mol | –
[2], 355.2 K | – | 1.9e-05
[2], 358 K | – | 2.8e-05
[2], 359 K | – | 2.8e-05
[2], 360.5 K | – | 3.8e-05
[2], 362.5 K | – | 4.7e-05
[2], 363.8 K | – | 4.7e-05
[2], 365.2 K | – | 5.7e-05
[2], 365.6 K | – | 5.7e-05
[2], 366.4 K | – | 6.6e-05
[2], 366.8 K | – | 7.6e-05
[2], 369.2 K | – | 9.5e-05
[2], 371 K | – | 0.000114
[2], 371.2 K | – | 0.000114
[2], 371.3 K | – | 0.000114
[2], 372.5 K | – | 0.000133
[2], 373 K | – | 0.000133
[2], 373.7 K | – | 0.000133
[2], 374 K | – | 0.000152
[2], 375.6 K | – | 0.000189
[2], 376 K | – | 0.000189
[2], 377 K | – | 0.000208
[2], 377.9 K | – | 0.000227
[2], 378.2 K | – | 0.000208
[2], 380.2 K | – | 0.000284
[2], 380.4 K | – | 0.000284
[2], 381.3 K | – | 0.000303
[2], 381.5 K | – | 0.000303
[2], 383.2 K | – | 0.000398
[2], 383.7 K | – | 0.000398
[2], 384.1 K | – | 0.000379
[2], 384.3 K | – | 0.000436
[2], 386.3 K | – | 0.000474
[2], 386.6 K | – | 0.000531
[2], 386.9 K | – | 0.000531
[2], 387.7 K | – | 0.000531
[2], 389.8 K | – | 0.000758
[2], 390.1 K | – | 0.00072
[2], 390.8 K | – | 0.000796
[2], 391.1 K | – | 0.000739
[2], 393.1 K | – | 0.000947
[2], 393.7 K | – | 0.000947
[2], 394 K | – | 0.001004
[2], 395.6 K | – | 0.001213

Source: the NIST ThermoML archive (doi:10.1016/j.fluid.2012.11.006)
